The source of these data is patent US20120010196A1, “METHODS OF TREATING NEURODEGENERATIVE DISORDERS AND DISEASES” (priority 2010, published 2012).

The subject of experiment [1] is axons and growth cones of hippocampal neurons from wild-type mice. Put plainly: Immunofluorescence quantification of protein levels in axons and growth cones of wild-type hippocampal neurons. The experiment is classed as cell-based. The method, then: (§1) Neuronal cultures. Cortical and hippocampal neurons were prepared from npc1+/+ and npc1−/− embryos at embryonic day 18 (E18); time-pregnant wild-type BALB/c or npc1+/− mice were obtained either from Charles River Laboratories (San Diego, Calif.) or from our breeding colony respectively. Neurons were cultured in NeuroBasal (GIBCO, Carlsbad, Calif.) with 10% bovine serum albumin (BSA), 2% B27, and 1% glutamine for three to four days before being used.
(§2) Treatment. For primary cultured neurons, chemicals (U18666A and inhibitors of various enzymes) were first dissolved in 10% DMSO before being diluted in cultured medium; final DMSO concentration was lower than 0.01%. For in vivo treatment, hydroxyfasudil monohydrochloride (Sigma) was dissolved in double-distilled H2O and injected subcutaneously at 10 mg/kg, twice a day from postnatal day 7 to day 28.
(§3) Immunofluorescent staining. Hippocampal neurons were fixed with 4% paraformaldehyde in phosphate buffer (PB; pH 7.4) for 15 min. After washing with 1× phosphate buffer saline (PBS), cells were permeabilized with 0.05% Triton X-100 in 1×PBS for 15 min, and incubated with blocking buffer (3% BSA, 0.02% Triton X-100 in 1×PBS) for 15 min before being probed with primary antibodies. The following primary antibodies were used: anti-E6AP (1:1000), anti-phospho-p53 (1:250), anti-phospho-4EBP1 (1:1000), antiphospho-Mdm2 antibody (1:250), anti-phospho-p38 antibody (1:250), anti-RhoA antibody (1:1500). All primary antibodies were diluted in blocking buffer and incubated at 4° C. for 18 h. After six washes (6×10 min) with 1×PBS at room temperature, cells were incubated with secondary antibodies, Alexa488-anti-rabbit (1:500) or Alexa594-anti-mouse (1:500); both antibodies were diluted in blocking buffer and incubated at room temperature for one h. Cells were then washed with 1×PBS (6×10 min) and sealed with mounting medium (Vectashield; Vector Laboratories, Inc., Burlingame, Calif.) containing 49,69-diamidino-2-phenylindole (DAPI) to stain nuclei. Immunofluorescent signal was detected with a Nikon confocal microscope (Nikon TE 2000U with DEclipse C1 system; Melville, N.Y.).
(§4) Quantification of growth cone morphology and immunoreactivity. Confocal images were taken using the 60× oil-immersion objective. About 20-30 images were randomly selected from each culture dish (20 mm in diameter); at least four to six dishes from three to six independent culture preparations/experiments were used for each experimental group. Within an experiment, cultures used for different experimental groups and designed for comparison were stained simultaneously and imaged with the same acquisition parameters. Quantification was done blindly by multiple researchers. Growth cones with less than 1 filopodium were considered collapsed; 100 growth cones were-quantified for each experimental group. Image J software was used to quantify immunoreactivity intensity of p-p53 and RhoA in axons and growth cones; the “total integrated density” was used instead of “average intensity”. Briefly, individual growth cones were outlined manually and the total integrated density was measured using Image J software. For quantification of immunoreactivity in axons, a 50 μm fragment of axons from the neck of growth cones towards the cell body was selected and integrated density measured.

Experiment [2] relates to cortical neurons cultured from wild-type mice. Put plainly: Immunoblotting analysis of various proteins in cultured cortical neurons (U18666A-induced changes). The experiment is classed as cell-based. The method, then: as §1, §2
Immunoprecipitation and immunoblotting procedures. For immunoprecipitation, cultured cortical neurons were lysed in lysis buffer [0.05 M Tris base, 0.9% NaCl, pH 7.6, and 0.5% Triton X-100 plus Protease Inhibitors Cocktail (1:100; EMD Biosciences) and phosphatase inhibitor cocktails (1:500; Sigma)]. Lysates were centrifuged at 16,000×g for 30 min at 4° C. Supernatant were then cleared with a mixture of protein A/Gagarose beads (each 50%) for 1 h at 4 uC, and after a brief spin, pellets were discarded. A small portion of the supernatants was used as input. The reminder of the supernatant was immunoprecipitated overnight with control IgG or Tau1 antibodies. Immunoprecipitates were captured by incubation with protein A/G-agarose beads for 3 h at 4° C. After several washes, the beads were resuspended in 2×SDS sample buffer [4% sodium dodecyl sulfate (SDS), 100 mM Tris-HCl (pH 6.8), 10% b-mercaptoethanol, 20% glycerol and 0.2% bromophenol blue] and boiled for 10 min. The resulting proteins were separated by SDS-PAGE, and transferred to polyvinylidene difluoride membranes for immunoblotting using previously described protocols.
Because the p-p53Δ and p-p53 bands were very close in immunoblots and the former was the predominant band, p-p53Δ levels were used as an index of p-p53 degradation. Immunoprecipitation was used to determine whether p-p53 truncation affected its association with the microtubule-associated protein tau, a protein that is abundantly and exclusively expressed in axons. p53 labeled by either anti-p-p53 or anti-p53 antibodies was immunoprecipitated by Tau1 antibodies (FIG. 5B).
Increased levels of p-p53Δ and p-Mdm2 were quantified using the ImageJ program (National Institutes of Health, Bethesda, Md.). The quantified levels are contained in Table 1 below.
A general note: Immunoblotting shows a protein as a band on a membrane.

In experiment [3] the test system is hippocampal neurons cultured from wild-type mice. Put plainly: Quantification of growth cone collapse in cultured neurons from wild-type mice (U18666A-induced). The format is cell-based. The conditions noted are these: for growth cone collapse (share of neurons): 1 μM U18666A for 18 h; for growth cone collapse: n=100 growth cones. The method, then: as §1, §2, §3, §4

For another experiment, the system named is hippocampal neurons. Put plainly: Filipin staining of cholesterol in cultured hippocampal neurons. Conditions: 1 μM U18666A for 18 h. The format is cell-based, mice. The protocol:
Filipin staining. […] After immunostaining with anti-E6-AP and anti-p-p53 antibodies and corresponding secondary antibodies conjugated with either Alexa Fluor H 594 or Alexa Fluor H 488, neurons were washed with 1×PBS and incubated in the dark with […] filipin in 1×PBS for 2 h at room temperature. Neuronal cultures were then washed again with 1×PBS before being examined with confocal microscopy.
Because axonal growth cone collapse in hippocampal neurons from npc1−/− mice was associated with decreased levels of p-p53, over-expression of wild-type p53 was tested to determine if it could reverse growth cone collapse. In this set of experiments, the amphiphilic amine and cholesterol transport inhibitor, U18666A, was used to induce a NPC-like phenotype in hippocampal neurons cultured from wild-type mice. U18666A has been used to induce NPC-like phenotype in various cultured cells, including neurons. Treatment with 1 μM U18666A for 18 h induced growth cone collapse in about 80% of hippocampal neurons prepared from wild-type mice and transfected with an EGFP-vector or a vector containing p53 with the R175H mutation (p53-R175H), a conformational mutation that is frequently found in tumor cells that lack p53 function (FIGS. 1D and E). […]

The subject of experiment [4] is hippocampal neurons cultured from npc1−/− mice. Put plainly: Growth cone collapse in hippocampal neurons cultured from npc1−/− mice. The format is cell-based. Conditions: 10 μM Y-27632 for 18 h at DIV3; vehicle 80±2%; n=100 growth cones. The protocol:
as §1
(§5) Treatment. For primary cultured neurons, chemicals (U18666A and inhibitors of various enzymes) were first dissolved in 10% DMSO before being diluted in cultured medium; final DMSO concentration was lower than 0.01%. […]
(§6) Immunofluorescent staining. […] Immunofluorescent signal was detected with a Nikon confocal microscope (Nikon TE 2000U with DEclipse C1 system; Melville, N.Y.).
(§7) Quantification of growth cone morphology and immunoreactivity. […] Quantification was done blindly by multiple researchers. Growth cones with less than 1 filopodium were considered collapsed; 100 growth cones were-quantified for each experimental group. Image J software was used to quantify immunoreactivity intensity of p-p53 and RhoA in axons and growth cones; the “total integrated density” was used instead of “average intensity”. Briefly, individual growth cones were outlined manually and the total integrated density was measured using Image J software. […]

For experiment [5] the test system is unchanged. Put plainly: p-p53 immunoreactivity in axons and growth cones of npc1−/− hippocampal neurons. The format is cell-based. Conditions: 10 μM Y-27632 for 18 h at DIV3. The method, then: as §1, §5, §6, §7
Setting [6] is: immunohistochemical analysis, mean±SEM, n=25-40, Mdm2 inhibitor 1 μM.
Setting [7] is: DIV4 cortical neurons from wild-type mice, 5 μM U18666A, inhibitor pre-treatment 1 μM, DMSO = 100, n = 3-6.

Turning to `CCN(CC)CCO[C@H]1CC[C@@]2(C)C(=CC[C@@H]3[C@@H]2CC[C@]2(C)C(=O)CC[C@@H]32)C1` [U18666A], the “levels of "mutant" p53 in axons and growth cones” value in experiment [1] (5 μM U18666A for 2 min, DIV4) was “markedly reduced”. Also, the “p-4EBP1 levels in axons and growth cones” value in experiment [1] (5 μM U18666A for two min) is recorded as “increased”. Moreover, the “levels of p-p38 and p-Mdm2 in axons and growth cones” value in experiment [1] (5 μM U18666A for two min vs vehicle-treated controls) is “increased”. In addition, in experiment [1] (setting [6]), the “RhoA levels in axons, percentage of control vehicle-treated neurons” value worked out at 640±56% and the “RhoA levels in growth cones, percentage of control vehicle-treated neurons” value was 257±37%. In addition, the “p-p53 levels (immunoblot)” value in experiment [2] (5 μM U18666A for 2 min, DIV4 wild-type cortical neurons) was “rapid decrease”. In experiment [2] (setting [7]), the “RhoA level (immunoblot)” value stood at 418, the “Ubiquitin level (immunoblot)” value came out at 435, the “p-4EBP1 level (immunoblot)” value is 389 and the “p-LIMK level (immunoblot)” value worked out at 411. For the same compound, in experiment [2] (setting [7]), the “p-Mdm2 level (immunoblot)” value was 549, the “p-p38 level (immunoblot)” value is on record as 493, the “p-p53Δ level (immunoblot)” value was 775 and the “t-p38 level (immunoblot)” value came out at 107. The “t-p53 level (immunoblot)” value in experiment [2] (setting [7]) is recorded as 94. The “growth cone collapse (share of neurons)” value in experiment [3] (neurons transfected with EGFP-vector or p53-R175H) is given as “about 80%”. Besides, the “growth cone collapse (share of neurons)” value in experiment [3] (neurons transfected with wild-type p53) worked out at 20%. In experiment [3] (5 μM U18666A for 2 min, DIV4, no inhibitor), this compound returned a growth cone collapse of 72±2%. Besides, the “filipin fluorescence intensity (cholesterol) in axons and collapsed growth cones” value in the experiment with hippocampal neurons was “marked decrease”.
As to `C[C@@H](N)[C@H]1CC[C@H](C(=O)Nc2ccncc2)CC1.Cl.Cl` [Y-27632, trans-4-[(1R)-1-Aminoethyl]-N-4-pyridinylcyclohexanecarboxamide dihydrochloride], in experiment [1] (Y-27632 10 μM 2 h pretreatment, 5 μM U18666A 2 min), the “effect on U18666A-induced decrease in p-p53 immunoreactivity in axons and growth cones” value is “reversed”. Moreover, in experiment [1] (pre-incubation with 10 μM Y27632), the “effect on U18666A-induced reduction of "mutant" p53 in axons and growth cones” value was “blocked”. For the same compound, in experiment [2] (pre-treatment with Y-27632), the “effect on U18666A-induced increase in levels of phosphorylated LIM kinase (immunoblot)” value is “significantly reduced”; the “effect on U18666A-induced increase in p38 and Mdm2 phosphorylation, protein ubiquitination and RhoA levels (immunoblot)” value is on record as “did not block”; the “effect on U18666A-induced p-p53 truncation (immunoblot)” value was “significantly reduced”. In experiment [3] (Y-27632 10 μM pre-incubation for 2 h, then 5 μM U18666A for 2 min, DIV4), this compound registered a growth cone collapse of 41±1%. The compound further came in with a growth cone collapse in experiment [4] of 48±1%. Moreover, in experiment [5], the “p-p53 immunoreactivity in axons and growth cones” value is “increased”.
